For 9 compounds, MIC results are on record in paper PMC9779606, “Synthesis, Structural Characterization and Biological Activity Evaluation of Novel Cu(II) Complexes with 3-(trifluoromethyl)phenylthiourea Derivatives” (International Journal of Molecular Sciences, 2022).

Broadly, the MIC is the lowest concentration found to suppress growth.

In the assay the test system is M. tuberculosis Spec. 210. Description: Tuberculostatic activity, Microplate Alamar Blue Assay (MABA). The format is cell-based, Mycobacterium tuberculosis. The following applies: M. tuberculosis Spec. 210, patient isolate resistant to PAS, INH, ETB, RMP. How it is done:
The synthesized compounds were examined in vitro for their tuberculostatic activity using MABA method (Microplate Alamar Blue Assay method). […] The inoculum was prepared from fresh LJ culture in Middlebrook 7H9 Broth medium with OADC, adjusted to a no. 1 McFarland tube, and diluted 1:20. […] Each test compound stock solution was diluted in Middlebrook 7H9 Broth medium with OADC by fourfold, the final highest concentration to be tested. Compounds were diluted serially in sterile 96-well microtiter plates using 100 μL Middlebrook 7H9 Broth medium with OADC. […] A growth control containing no antibiotic and a sterile control without inoculation were also prepared on each plate. The plates were incubated at 37 °C for a week. After the incubation period, 30 μL of Alamar blue solution was added to each well, and the plate was re-incubated for 24 h. Growth is indicated by a color change from blue to pink and the lowest concentration of compound that prevented the color change was noted as its MIC. Isoniazid (INH), Rifampicin (RMP), Streptomycin (SM), and Ethambutol (EMB) as reference drugs were used for comparison.
(The colour change of resazurin is a common sign of viable cells or microbes.)

[1] abbreviates: Mycobacterium tuberculosis, read-out: MIC.

≈ marks a conversion by molar mass, not a printed value. Like-named read-outs stand apart in the source and are kept apart here.

For the compound `[H]/N=C(/N)N[C@H]1[C@H](O)[C@@H](O)[C@H](O[C@@H]2O[C@@H](C)[C@](O)(C=O)[C@H]2O[C@@H]2O[C@@H](CO)[C@H](O)[C@@H](O)[C@@H]2NC)[C@@H](N/C(N)=N\[H])[C@@H]1O` [Streptomycin (SM), Streptomycin, reference compound], the MIC under setting [1] turned out to be 16 µg/mL (≈ 27.5 µM).
As to `FC(F)(F)c1cccc([N-]C(=S)Nc2cccc(Br)c2)c1.FC(F)(F)c1cccc([N-]C(=S)Nc2cccc(Br)c2)c1.[Cu+2]` [Cu4, Copper(II) Complex with 1-(3-bromophenyl)-3-[3-(trifluoromethyl)phenyl] thiourea], the MIC was found to be 4 µg/mL.
Consider `O.O=[N+]([O-])c1cc(NC(=S)[N-]c2cccc(C(F)(F)F)c2)ccc1Cl.O=[N+]([O-])c1cc(NC(=S)[N-]c2cccc(C(F)(F)F)c2)ccc1Cl.[Cu+2]` [Cu5, Copper(II) Complex with 1-(4-chloro-3-nitrophenyl)-3-[3-(trifluoromethyl)phenyl]thiourea], for which the MIC stood at 4 µg/mL.
For `CO[C@H]1/C=C/O[C@@]2(C)Oc3c(C)c(O)c4c(O)c(c(/C=N/N5CCN(C)CC5)c(O)c4c3C2=O)NC(=O)/C(C)=C\C=C\[C@H](C)[C@H](O)[C@@H](C)[C@@H](O)[C@@H](C)[C@H](OC(C)=O)[C@@H]1C` [Rifampicin (RMP), Rifampicin, reference compound], under setting [1], the minimal inhibitory concentration (MIC) was found to be 32 µg/mL (≈ 38.9 µM).
With `NNC(=O)c1ccncc1` [Isoniazid (INH), Isoniazid, reference compound], the MIC under setting [1] turned out to be 16 µg/mL (≈ 117 µM).
With `CC(NC(=S)[N-]c1cccc(C(F)(F)F)c1)c1ccccc1.CC(NC(=S)[N-]c1cccc(C(F)(F)F)c1)c1ccccc1.[Cu+2]` (racemic) [Cu2, Copper(II) Complex with 1-(1-phenylethyl)-3-[3-(trifluoromethyl)phenyl]thiourea], the MIC was 8 µg/mL.
In turn, `FC(F)(F)c1cccc([N-]C(=S)NCc2ccccc2)c1.FC(F)(F)c1cccc([N-]C(=S)NCc2ccccc2)c1.[Cu+2]` [Cu3, Copper(II) Complex with 1-benzyl-3-[3-(trifluoromethyl)phenyl]thiourea] showed a minimal inhibitory concentration (MIC) of 16 µg/mL.
As to `CC[C@@H](CO)NCCN[C@@H](CC)CO` [Ethambutol (EMB), Ethambutol, reference compound], the MIC under setting [1] was found to be 32 µg/mL (≈ 157 µM).
In turn, `FC(F)(F)c1cccc([N-]C(=S)NCCc2ccccc2)c1.FC(F)(F)c1cccc([N-]C(=S)NCCc2ccccc2)c1.O.[Cu+2]` [Cu1, Copper(II) Complex with 1-(2-phenylethyl)-3-[3-(trifluoromethyl)phenyl]thiourea] returned an MIC of 16 µg/mL.
